Results from publication PMC12300041, “Tricyclic Isatin Derivatives as Anti-Inflammatory Compounds with High Kinase Binding Affinity” (Molecules, 2025).
One block for each compound: values may come before it.

Assays:
[1] = tested on: proinflammatory cytokine production; experiment: Multiplex human cytokine ELISA, LPS-stimulated MonoMac-6 cells; format: cell-based; details: 10 μM compound, 24 h, versus DMSO-treated control
From the text: A multiplex human cytokine ELISA kit from Anogen (Mississauga, ON, Canada) was used to evaluate various cytokines (IL-1α, IL-1β, IL-6, GM-CSF, MCP-1, IFN-γ, and TNF) in the supernatants of MonoMac-6 cells.

HIPK1 = target: T1, HIPK1 (Homo sapiens, UniProt Q86Z02); experiment: KINOMEscan; format: binding; details: HIPK1; N.B.: no binding at concentrations up to 30 µM
T1 construct: purchased Eurofins Pharma Discovery (KINOMEscan)
Method: (§1) Kinase profiling was performed by KINOMEscan (Eurofins Pharma Discovery, San Diego, CA, USA), using a panel of 423 protein kinases, as described previously. Compounds were submitted for dissociation constant (Kd) determination toward several target kinases using KINOMEscan. […] Binding reactions were performed at room temperature for 1 h, and the fraction of kinase not bound to the test compound was determined by capture with an immobilized affinity ligand and quantified by quantitative polymerase chain reaction. The primary screening at fixed concentrations of the compound was performed in duplicate. For dissociation constant Kd determination, a 12-point half-log dilution series (a maximum concentration of 33 μM) was used.

HASPIN = target: T2, HASPIN (Homo sapiens, UniProt Q8TF76); experiment: KINOMEscan; format: binding; details: Haspin; N.B.: no binding at concentrations up to 30 µM
T2 construct: purchased Eurofins Pharma Discovery (KINOMEscan)
T2 sequence (Q8TF76 1-798): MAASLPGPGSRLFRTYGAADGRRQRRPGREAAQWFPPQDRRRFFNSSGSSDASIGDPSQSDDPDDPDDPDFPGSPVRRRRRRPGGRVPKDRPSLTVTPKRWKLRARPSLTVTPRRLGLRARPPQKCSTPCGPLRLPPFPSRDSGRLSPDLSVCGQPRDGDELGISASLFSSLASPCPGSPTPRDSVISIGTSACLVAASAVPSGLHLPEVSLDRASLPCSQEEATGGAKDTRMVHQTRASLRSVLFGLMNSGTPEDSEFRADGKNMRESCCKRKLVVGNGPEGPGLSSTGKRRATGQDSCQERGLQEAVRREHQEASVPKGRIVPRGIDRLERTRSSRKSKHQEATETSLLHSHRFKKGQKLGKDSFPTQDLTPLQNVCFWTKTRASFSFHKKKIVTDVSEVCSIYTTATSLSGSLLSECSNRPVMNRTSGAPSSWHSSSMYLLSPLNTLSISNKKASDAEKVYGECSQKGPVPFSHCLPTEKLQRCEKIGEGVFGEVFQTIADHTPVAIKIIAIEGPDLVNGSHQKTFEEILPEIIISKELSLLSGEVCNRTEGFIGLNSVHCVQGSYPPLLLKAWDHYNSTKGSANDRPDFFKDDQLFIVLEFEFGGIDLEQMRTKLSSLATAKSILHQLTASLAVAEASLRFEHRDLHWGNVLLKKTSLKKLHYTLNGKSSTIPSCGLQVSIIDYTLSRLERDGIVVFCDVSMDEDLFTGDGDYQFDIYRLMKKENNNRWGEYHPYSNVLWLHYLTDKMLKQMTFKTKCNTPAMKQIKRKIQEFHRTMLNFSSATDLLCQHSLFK
Method: as §1

PIM1 = target: T3, PIM1 (Homo sapiens, UniProt P11309); experiment: KINOMEscan; format: binding; details: PIM1; N.B.: no binding at concentrations up to 30 µM
T3 construct: purchased Eurofins Pharma Discovery (KINOMEscan)
Method: as §1

DAPK1 = target: T4, DAPK1 (Homo sapiens, UniProt P53355); experiment: KINOMEscan; format: binding; details: DAPK1; N.B.: no binding at concentrations up to 30 µM
T4 construct: purchased Eurofins Pharma Discovery (KINOMEscan)
Method: as §1

HIPK3 = target: T5, HIPK3 (Homo sapiens, UniProt Q9H422); experiment: KINOMEscan; format: binding; details: HIPK3; N.B.: no binding at concentrations up to 30 µM
T5 construct: purchased Eurofins Pharma Discovery (KINOMEscan)
Method: as §1

DAPK2 = target: T6, DAPK2 (Homo sapiens, UniProt Q9UIK4); experiment: KINOMEscan; format: binding; details: DAPK2; N.B.: no binding at concentrations up to 30 µM
T6 construct: purchased Eurofins Pharma Discovery (KINOMEscan)
Method: as §1

DYRK1A = target: T7, DYRK1A (Homo sapiens, UniProt Q13627); experiment: KINOMEscan; format: binding; details: DYRK1A; N.B.: no binding at concentrations up to 30 µM
T7 construct: purchased Eurofins Pharma Discovery (KINOMEscan)
Method: as §1

DYRK1B = target: T8, DYRK1B (Homo sapiens, UniProt Q9Y463); experiment: KINOMEscan; format: binding; details: DYRK1B; N.B.: no binding at concentrations up to 30 µM
T8 construct: purchased Eurofins Pharma Discovery (KINOMEscan)
Method: as §1

DAPK3 = target: T9, DAPK3 (Homo sapiens, UniProt O43293); experiment: KINOMEscan; format: binding; details: DAPK3; N.B.: no binding at concentrations up to 30 µM
T9 construct: purchased Eurofins Pharma Discovery (KINOMEscan)
Method: as §1

NEK10 = target: T10, NEK10 (Homo sapiens, UniProt Q6ZWH5); experiment: KINOMEscan; format: binding; details: NEK10; N.B.: no binding at concentrations up to 30 µM
T10 construct: purchased Eurofins Pharma Discovery (KINOMEscan)
T10 sequence (Q6ZWH5 1-1172): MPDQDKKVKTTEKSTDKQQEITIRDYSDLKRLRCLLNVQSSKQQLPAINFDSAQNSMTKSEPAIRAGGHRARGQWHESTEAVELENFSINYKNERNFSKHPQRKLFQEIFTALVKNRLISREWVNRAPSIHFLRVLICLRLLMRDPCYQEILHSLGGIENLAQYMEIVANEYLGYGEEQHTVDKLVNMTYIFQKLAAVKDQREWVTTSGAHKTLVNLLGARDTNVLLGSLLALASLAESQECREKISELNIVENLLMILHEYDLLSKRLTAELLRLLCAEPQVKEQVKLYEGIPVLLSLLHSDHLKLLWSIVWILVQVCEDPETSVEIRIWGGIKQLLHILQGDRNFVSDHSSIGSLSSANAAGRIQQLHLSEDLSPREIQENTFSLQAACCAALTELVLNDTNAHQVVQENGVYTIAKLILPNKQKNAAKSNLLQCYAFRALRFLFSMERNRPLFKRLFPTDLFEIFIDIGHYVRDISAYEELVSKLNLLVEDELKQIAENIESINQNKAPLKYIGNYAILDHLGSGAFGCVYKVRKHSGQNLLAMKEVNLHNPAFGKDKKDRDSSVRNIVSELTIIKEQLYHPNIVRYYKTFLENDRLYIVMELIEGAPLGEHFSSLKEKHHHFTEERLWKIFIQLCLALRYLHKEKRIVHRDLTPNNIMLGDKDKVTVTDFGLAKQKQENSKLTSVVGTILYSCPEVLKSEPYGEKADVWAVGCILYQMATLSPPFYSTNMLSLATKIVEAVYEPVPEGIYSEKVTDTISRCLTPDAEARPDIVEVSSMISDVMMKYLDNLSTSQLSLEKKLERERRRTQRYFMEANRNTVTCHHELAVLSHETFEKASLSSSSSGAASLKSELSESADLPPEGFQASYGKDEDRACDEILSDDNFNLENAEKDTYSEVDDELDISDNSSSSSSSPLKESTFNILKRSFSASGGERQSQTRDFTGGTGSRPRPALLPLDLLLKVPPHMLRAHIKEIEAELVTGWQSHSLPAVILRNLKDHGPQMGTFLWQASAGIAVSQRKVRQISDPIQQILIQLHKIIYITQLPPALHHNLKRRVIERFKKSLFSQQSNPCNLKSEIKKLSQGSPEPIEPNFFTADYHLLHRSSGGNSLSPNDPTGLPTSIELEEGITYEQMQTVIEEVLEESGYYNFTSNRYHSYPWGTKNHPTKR
Method: as §1

IRAK1 = target: T11, IRAK1 (Homo sapiens, UniProt P51617); experiment: KINOMEscan; format: binding; details: IRAK1; N.B.: no binding at concentrations up to 30 µM
T11 construct: purchased Eurofins Pharma Discovery (KINOMEscan)
Method: as §1

HIPK2 = target: T12, HIPK2 (Homo sapiens, UniProt Q9H2X6); experiment: KINOMEscan; format: binding; details: HIPK2; N.B.: no binding at concentrations up to 30 µM
T12 construct: purchased Eurofins Pharma Discovery (KINOMEscan)
Method: as §1

THP-1 Cells = experiment: Cytotoxicity, CellTiter-Glo; format: cell-based, human; details: 24 h incubation; N.T.: no cytotoxicity at concentrations up to 50 µM
Method: (§2) Cytotoxicity was analyzed with a CellTiter-Glo Luminescent Cell Viability Assay Kit from Promega (Madison, WI, USA) according to the manufacturer’s protocol. THP-1Blue cells were treated with varying concentrations of the test compounds (up to 50 µM) and cultivated for 24 h. After treatment, the cells were allowed to equilibrate to room temperature for 30 min, the substrate was added, and the samples were analyzed with a Fluoroscan Ascent FL (Thermo Fisher Scientific, Waltham, MA, USA).

[2] = Cytotoxicity, CellTiter-Glo; format: cell-based, human; details: human, THP-1Blue cells; 24 h incubation; N.T.: no cytotoxicity at concentrations up to 50 µM
Method: as §2

MonoMac-6 Cells = experiment: Cytotoxicity, CellTiter-Glo; format: cell-based, human; details: 24 h incubation; N.T.: no cytotoxicity at concentrations up to 50 µM
[3] = Cytotoxicity, CellTiter-Glo; format: cell-based, human; details: human, MonoMac-6 cells; 24 h incubation; N.T.: no cytotoxicity at concentrations up to 50 µM
kinases = experiment: Published kinase profile of SP600125, selectivity score; format: binding; details: from published kinase profile; 39/119

T9 sequence (O43293 whole entry): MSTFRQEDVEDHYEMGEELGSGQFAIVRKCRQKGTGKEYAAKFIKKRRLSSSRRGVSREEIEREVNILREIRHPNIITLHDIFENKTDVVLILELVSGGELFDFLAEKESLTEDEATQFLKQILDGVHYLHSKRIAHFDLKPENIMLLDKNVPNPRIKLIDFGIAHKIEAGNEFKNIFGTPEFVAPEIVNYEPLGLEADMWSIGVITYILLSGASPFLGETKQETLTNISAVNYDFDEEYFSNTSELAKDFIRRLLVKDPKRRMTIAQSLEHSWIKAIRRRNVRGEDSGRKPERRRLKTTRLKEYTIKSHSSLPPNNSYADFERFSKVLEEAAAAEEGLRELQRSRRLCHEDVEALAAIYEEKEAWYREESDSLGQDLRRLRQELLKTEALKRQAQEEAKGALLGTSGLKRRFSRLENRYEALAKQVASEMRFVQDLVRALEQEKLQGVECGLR
T5 sequence (Q9H422 whole entry): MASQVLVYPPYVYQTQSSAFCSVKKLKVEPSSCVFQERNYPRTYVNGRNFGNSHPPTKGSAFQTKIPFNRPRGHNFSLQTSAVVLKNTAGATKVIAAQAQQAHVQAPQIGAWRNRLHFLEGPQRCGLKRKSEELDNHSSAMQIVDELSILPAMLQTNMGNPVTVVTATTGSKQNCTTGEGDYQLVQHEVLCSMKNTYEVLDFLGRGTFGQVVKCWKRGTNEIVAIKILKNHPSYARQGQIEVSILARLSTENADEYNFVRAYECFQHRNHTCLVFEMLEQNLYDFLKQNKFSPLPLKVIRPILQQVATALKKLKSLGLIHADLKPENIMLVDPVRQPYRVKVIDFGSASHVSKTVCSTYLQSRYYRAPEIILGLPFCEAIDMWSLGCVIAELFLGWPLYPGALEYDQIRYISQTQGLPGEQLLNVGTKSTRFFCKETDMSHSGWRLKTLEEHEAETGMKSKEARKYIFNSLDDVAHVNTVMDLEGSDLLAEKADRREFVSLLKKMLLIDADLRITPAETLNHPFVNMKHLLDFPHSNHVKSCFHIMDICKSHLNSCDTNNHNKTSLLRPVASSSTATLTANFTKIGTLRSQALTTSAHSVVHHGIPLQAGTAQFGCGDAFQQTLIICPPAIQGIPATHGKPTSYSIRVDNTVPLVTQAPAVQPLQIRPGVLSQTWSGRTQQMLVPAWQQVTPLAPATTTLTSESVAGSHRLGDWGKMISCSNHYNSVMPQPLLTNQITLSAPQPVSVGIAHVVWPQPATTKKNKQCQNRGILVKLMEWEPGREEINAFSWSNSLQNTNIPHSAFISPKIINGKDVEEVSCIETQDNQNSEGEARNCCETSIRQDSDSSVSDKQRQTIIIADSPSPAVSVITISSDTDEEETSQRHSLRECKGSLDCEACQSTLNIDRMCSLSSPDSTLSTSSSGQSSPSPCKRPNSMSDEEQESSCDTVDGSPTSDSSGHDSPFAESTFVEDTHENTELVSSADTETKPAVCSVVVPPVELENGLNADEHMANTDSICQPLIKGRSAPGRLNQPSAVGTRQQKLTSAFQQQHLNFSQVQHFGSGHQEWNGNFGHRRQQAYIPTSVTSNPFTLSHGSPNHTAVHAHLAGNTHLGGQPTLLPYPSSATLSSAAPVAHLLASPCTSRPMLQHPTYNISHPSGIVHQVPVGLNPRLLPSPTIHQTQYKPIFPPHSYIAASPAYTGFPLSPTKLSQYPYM
T12 sequence (Q9H2X6 whole entry): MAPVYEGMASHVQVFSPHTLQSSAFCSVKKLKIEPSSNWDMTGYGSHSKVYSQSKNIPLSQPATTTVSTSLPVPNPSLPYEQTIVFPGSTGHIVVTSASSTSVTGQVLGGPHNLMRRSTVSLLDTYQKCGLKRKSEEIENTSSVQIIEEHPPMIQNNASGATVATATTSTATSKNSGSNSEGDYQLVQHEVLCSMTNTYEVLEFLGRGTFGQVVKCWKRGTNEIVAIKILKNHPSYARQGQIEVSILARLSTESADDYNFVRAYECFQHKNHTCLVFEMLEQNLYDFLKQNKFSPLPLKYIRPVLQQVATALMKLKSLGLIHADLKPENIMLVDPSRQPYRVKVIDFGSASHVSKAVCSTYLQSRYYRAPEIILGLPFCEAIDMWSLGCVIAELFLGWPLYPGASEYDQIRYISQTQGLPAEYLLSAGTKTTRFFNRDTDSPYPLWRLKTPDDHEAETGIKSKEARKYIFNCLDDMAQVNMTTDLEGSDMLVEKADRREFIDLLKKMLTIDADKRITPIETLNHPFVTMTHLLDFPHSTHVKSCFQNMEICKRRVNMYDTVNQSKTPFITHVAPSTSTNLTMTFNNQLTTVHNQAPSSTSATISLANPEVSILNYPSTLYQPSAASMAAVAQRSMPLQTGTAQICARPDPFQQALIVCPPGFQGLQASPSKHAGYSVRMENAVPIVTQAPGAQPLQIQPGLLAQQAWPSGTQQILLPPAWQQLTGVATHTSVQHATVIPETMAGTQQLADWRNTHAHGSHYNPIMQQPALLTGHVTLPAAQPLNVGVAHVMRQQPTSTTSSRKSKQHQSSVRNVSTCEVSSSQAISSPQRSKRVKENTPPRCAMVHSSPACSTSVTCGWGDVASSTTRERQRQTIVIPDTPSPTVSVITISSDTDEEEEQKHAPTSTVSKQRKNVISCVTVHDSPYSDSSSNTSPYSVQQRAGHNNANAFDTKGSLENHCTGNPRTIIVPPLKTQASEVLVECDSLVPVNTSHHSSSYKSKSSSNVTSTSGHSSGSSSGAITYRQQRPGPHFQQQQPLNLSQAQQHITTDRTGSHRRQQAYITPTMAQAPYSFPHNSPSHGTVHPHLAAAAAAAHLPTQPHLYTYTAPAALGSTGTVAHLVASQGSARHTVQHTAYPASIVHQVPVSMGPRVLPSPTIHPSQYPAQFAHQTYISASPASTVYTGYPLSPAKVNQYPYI
T11 sequence (P51617 whole entry): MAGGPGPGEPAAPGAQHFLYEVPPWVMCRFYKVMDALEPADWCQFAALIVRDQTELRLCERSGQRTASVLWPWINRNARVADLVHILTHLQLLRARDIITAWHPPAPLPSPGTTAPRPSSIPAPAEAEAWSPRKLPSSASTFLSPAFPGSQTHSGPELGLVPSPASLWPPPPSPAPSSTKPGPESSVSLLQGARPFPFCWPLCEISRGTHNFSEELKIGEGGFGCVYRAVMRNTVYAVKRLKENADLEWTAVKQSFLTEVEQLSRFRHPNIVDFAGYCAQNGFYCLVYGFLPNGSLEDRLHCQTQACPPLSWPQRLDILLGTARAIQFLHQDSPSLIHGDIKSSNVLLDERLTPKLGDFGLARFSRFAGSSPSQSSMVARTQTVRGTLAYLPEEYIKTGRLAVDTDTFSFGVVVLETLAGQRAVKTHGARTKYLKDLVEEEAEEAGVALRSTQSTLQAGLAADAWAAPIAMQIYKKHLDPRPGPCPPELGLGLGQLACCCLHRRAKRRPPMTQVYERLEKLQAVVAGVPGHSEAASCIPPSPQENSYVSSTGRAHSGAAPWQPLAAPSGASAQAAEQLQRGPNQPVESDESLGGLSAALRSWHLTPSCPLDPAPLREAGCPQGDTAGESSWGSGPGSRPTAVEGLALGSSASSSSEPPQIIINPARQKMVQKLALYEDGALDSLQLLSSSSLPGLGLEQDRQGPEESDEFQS
T3 sequence (P11309 whole entry): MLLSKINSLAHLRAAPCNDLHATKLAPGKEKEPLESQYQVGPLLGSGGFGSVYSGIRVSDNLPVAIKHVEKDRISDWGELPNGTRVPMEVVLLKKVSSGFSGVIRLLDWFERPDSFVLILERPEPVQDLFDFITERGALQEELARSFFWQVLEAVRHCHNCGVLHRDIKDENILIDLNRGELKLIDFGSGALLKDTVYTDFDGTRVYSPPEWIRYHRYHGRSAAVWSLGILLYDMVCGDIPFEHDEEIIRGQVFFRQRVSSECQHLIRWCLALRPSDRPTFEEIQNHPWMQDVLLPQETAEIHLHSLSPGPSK
T6 sequence (Q9UIK4 whole entry): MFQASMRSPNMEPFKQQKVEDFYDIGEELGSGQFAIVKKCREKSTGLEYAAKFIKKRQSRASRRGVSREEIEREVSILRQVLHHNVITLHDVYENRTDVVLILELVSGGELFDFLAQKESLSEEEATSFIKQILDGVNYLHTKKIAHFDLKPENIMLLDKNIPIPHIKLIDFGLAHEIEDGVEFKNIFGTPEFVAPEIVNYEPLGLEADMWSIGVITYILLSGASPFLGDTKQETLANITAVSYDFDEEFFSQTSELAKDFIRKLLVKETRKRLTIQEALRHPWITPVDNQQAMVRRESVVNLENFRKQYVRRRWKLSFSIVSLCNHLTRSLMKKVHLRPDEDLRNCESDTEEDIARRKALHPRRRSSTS
T8 sequence (Q9Y463 whole entry): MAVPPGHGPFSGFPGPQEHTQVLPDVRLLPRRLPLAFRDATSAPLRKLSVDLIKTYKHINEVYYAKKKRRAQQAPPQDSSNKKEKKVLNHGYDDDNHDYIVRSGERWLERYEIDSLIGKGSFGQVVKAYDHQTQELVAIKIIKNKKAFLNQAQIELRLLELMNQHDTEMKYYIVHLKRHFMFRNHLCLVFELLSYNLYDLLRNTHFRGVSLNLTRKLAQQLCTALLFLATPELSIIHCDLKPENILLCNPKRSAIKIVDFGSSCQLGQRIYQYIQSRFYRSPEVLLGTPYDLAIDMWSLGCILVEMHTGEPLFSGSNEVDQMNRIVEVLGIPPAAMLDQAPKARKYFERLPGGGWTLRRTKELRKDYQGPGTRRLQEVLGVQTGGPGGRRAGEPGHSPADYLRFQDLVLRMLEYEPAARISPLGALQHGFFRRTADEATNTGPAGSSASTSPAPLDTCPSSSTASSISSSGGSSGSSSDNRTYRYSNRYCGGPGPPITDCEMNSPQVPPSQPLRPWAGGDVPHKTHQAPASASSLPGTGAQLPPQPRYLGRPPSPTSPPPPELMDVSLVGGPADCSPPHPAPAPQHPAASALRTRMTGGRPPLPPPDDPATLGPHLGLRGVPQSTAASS

SMILES: CON=C1C(=O)Nc2c1ccc1c2CCCC1 [Compound 5b, 3-(Methoxyimino)-1,3,6,7,8,9-hexahydro-2H-benzo[g]indol-2-one]
inhibition of secretion of IL-1α, IL-1β, IL-6, TNF and MCP-1 [1]: ineffective

SMILES: CON=C1C(=O)Nc2c1cc([N+](=O)[O-])c1c2CCCC1 [Compound 5e, 3-(Methoxyimino)-5-nitro-1,3,6,7,8,9-hexahydro-2H-benzo[g]indol-2-one]
inhibition of secretion of IL-1α, IL-1β, IL-6, TNF and MCP-1 [1]: ineffective

Kd (µM) (HIPK1): N.B.
Kd (µM) (HASPIN): N.B.
Kd (PIM1): 14 ± 0.7 µM
Kd (µM) (DAPK1): N.B.
Kd (µM) (HIPK3): N.B.
Kd (µM) (DAPK2): N.B.
Kd (µM) (DYRK1A): N.B.
Kd (µM) (DYRK1B): N.B.
Kd (µM) (DAPK3): N.B.
Kd (µM) (NEK10): N.B.
Kd (µM) (IRAK1): N.B.
Kd (µM) (HIPK2): N.B.
SMILES: CCN1CCc2c(-c3ccccc3)cc3c(c2C1)NC(=O)C3=NO [NS-383, 8-ethyl-6,7,8,9-tetrahydro-5-phenyl-1H-pyrrolo[3,2-h]isoquinolin-2,3-dione-3-oxime, reference compound]
Cytotoxicity (THP-1 Cells) IC50 (µM) (THP-1 Cells): cytotoxic
IC50 at 24 h [2]: 19.2 ± 2.1 µM
Cytotoxicity (MonoMac-6 Cells) IC50 (µM) (MonoMac-6 Cells): cytotoxic
IC50 at 24 h [3]: 21.2 ± 2.4 µM

SMILES: Oc1c2ccccc2c2c3c(cccc13)N=N2 [SP600125]
selectivity score, S(10) (kinases): 0.328
